Measured values as given in US20150352108A1, “AMINO-PYRIMIDINE COMPOUNDS AS INHIBITORS OF TBK1 AND/OR IKK EPSILON” (Alzheimer's Institute of America, priority 2009, published 2015).

Key:
TBK1 = molecular target: T1, TBK1 (Homo sapiens, UniProt Q9UHD2); assay: In-vitro TBK1 kinase assay ([γ33]ATP filter-plate); format: biochemical; details: text bins; read-out: IC50 for inhibition of the kinase activity of TBK1
T1 construct: His-tag; made in house; host or cells: Sf9 insect cells
T1 sequence (Q9UHD2 1-729): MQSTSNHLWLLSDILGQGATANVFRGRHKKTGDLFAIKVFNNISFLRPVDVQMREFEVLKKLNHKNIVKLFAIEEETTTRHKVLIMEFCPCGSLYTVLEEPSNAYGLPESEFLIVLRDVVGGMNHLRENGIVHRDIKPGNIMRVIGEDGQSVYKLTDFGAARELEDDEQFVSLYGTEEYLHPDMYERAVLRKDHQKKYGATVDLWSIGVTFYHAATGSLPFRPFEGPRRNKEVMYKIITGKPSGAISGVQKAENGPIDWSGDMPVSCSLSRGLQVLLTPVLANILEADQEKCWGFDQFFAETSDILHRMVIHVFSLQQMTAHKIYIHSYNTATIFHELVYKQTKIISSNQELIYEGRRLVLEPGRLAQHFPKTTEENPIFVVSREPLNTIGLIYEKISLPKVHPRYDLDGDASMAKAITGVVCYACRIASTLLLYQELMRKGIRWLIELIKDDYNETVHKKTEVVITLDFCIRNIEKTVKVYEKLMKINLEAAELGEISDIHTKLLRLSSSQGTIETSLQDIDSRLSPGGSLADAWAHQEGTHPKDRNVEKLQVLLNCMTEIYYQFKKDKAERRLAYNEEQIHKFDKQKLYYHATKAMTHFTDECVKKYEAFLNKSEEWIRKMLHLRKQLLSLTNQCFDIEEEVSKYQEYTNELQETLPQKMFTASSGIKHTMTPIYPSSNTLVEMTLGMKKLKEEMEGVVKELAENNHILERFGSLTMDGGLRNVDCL
Procedure: IKKε enzyme was produced as a His-tag fusion in Sf9 cells and used at a final concentration of […]. TBK1 enzyme was produced as a His-tag fusion in Sf9 cells and used at a final concentration of 0.1 μg/ml. Kinase reactions were carried out in reaction buffer using myelin basic protein (Millipore, Ballerica, Mass.) or casein (Sigma, St. Louis, Mo.) as substrate at an ATP concentration equal to twice the Km,ATP value for each enzyme, corresponding to 32 μM ATP for IKKε and 60 μM ATP for TBK1, in the presence of 0.3 μCi [γ^33]ATP (PerkinElmer, Waltham, Mass.). Final enzyme concentrations were 0.1 or 0.015 μg/ml (IKKε) and 0.1 or 0.02 μg/ml (TBK1), representing “normal” and “sensitized” assay conditions respectively. Test compounds (or DMSO solvent as a control) were added prior to initiation of the reactions. Reactions were terminated after 30-45 minutes by adding 3% phosphoric acid. Terminated reactions were transferred to P-81 cellulose phosphate filterplates (Whatman, Inc., Piscataway, N.J.) and washed with 1% phosphoric acid on a vacuum apparatus. After air drying, scintillant (PerkinElmer, Waltham, Mass.) was added and the plates were read on a PerkinElmer TopCount NXT instrument. Counts were normalized to DMSO controls after background subtraction.

IKKε = molecular target: T2, IKKε (Homo sapiens, UniProt Q14164); assay: In-vitro IKKε kinase assay ([γ33]ATP filter-plate); format: biochemical; details: text bins; read-out: IC50 for inhibition of the kinase activity of IKKε
T2 construct: His-tag; made in house; host or cells: Sf9 insect cells
T2 sequence (Q14164 1-716): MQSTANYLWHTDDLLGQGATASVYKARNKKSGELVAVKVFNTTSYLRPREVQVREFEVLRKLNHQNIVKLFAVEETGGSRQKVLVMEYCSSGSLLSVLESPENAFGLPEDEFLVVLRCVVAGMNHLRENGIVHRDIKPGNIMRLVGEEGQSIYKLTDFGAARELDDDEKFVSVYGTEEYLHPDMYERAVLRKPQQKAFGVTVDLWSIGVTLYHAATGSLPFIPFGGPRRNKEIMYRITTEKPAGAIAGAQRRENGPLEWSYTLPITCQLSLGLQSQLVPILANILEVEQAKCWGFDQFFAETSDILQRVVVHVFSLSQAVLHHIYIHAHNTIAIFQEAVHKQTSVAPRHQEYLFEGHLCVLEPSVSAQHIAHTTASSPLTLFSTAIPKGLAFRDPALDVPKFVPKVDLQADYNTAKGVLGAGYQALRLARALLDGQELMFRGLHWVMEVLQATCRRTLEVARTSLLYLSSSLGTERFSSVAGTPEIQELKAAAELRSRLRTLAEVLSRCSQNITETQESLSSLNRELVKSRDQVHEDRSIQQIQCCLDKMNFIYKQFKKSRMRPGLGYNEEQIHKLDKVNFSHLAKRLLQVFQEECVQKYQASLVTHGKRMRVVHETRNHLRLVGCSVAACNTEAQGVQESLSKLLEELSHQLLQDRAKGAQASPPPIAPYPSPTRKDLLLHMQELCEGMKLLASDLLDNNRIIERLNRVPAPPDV
In short: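 His-tagged Sf9-expressed kinases at 0.1 or 0.02 μg/ml (TBK1) and 0.1 or 0.015 μg/ml (IKKε) for normal and sensitized formats, with myelin basic protein or casein substrate. ATP was at 2×Km (60 μM TBK1, 32 μM IKKε) plus 0.3 μCi [γ33]ATP. Reactions ran 30-45 min, were captured on P-81 filters, and counts were normalized to DMSO.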

| Compound | IC50 (TBK1) [nM] | IC50 (IKKε) [nM] |
| --- | --- | --- |
| N#Cc1cc(-c2ccnc(Nc3ccc(N4CCOCC4)c(C4CC4)c3)n2)ccc1OC1CCOCC1 [compound 329, 5-(2-{[3-cyclopropyl-4-(morpholin-4-yl)phenyl]amino}pyrimidin-4-yl)-2-(tetrahydro-2H-pyran-4-yloxy)benzonitrile] | < 10 | < 5 |
| N#Cc1cc(-c2ccnc(Nc3ccc(N4CCOCC4)cc3)n2)ccc1OCc1ccccc1 [Example 179, 2-(Benzyloxy)-5-(2-{[4-(morpholin-4-yl)phenyl]amino}pyrimidin-4-yl)benzonitrile] | 10 to 100 | 5 to 50 |
| N#Cc1cccc(-c2ccnc(Nc3ccc(OCCN4CCOCC4)cc3)n2)c1 [Example 283, 3-[2-({4-[2-(Morpholin-4-yl)ethoxy]phenyl}amino)pyrimidin-4-yl]benzonitrile] | 10 to 100 |  |
| COc1cc(Nc2nccc(-c3ccc(OC4CCN(C(=O)OC(C)(C)C)CC4)c(C#N)c3)n2)ccc1N1CCOCC1 [Example 263, tert-butyl 4-[2-cyano-4-(2-{[3-methoxy-4-(morpholin-4-yl)phenyl]amino}pyrimidin-4-yl)phenoxy]piperidine-1-carboxylate] | 100 to 500 |  |
| CS(=O)(=O)N(c1ccc(-c2ccnc(Nc3ccc(N4CCOCC4)cc3)n2)cc1C#N)S(C)(=O)=O [Example 167, N-[2-Cyano-4-(2-{[4-(morpholin-4-yl)phenyl]amino}pyrimidin-4-yl)phenyl]-N-(methylsulfonyl) methanesulfonamide] |  | 5 to 50 |
| CN1CCN(CC(=O)N2CCC(Oc3ccc(-c4ccnc(Nc5ccc(N6CCOCC6)cc5)n4)cc3C#N)CC2)CC1 [Example 240, 2-({1-[(4-methylpiperazin-1-yl)acetyl]piperidin-4-yl}oxy)-5-(2-{[4-(morpholin-4-yl)phenyl]amino}pyrimidin-4-yl)benzonitrile] |  | 50 to 500 |
| COc1ccc(Nc2nccc(-c3cccc(C#N)c3)n2)cc1F [Example 66, 3-{2-[(3-Fluoro-4-methoxyphenyl)amino]pyrimidin-4-yl}benzonitrile] |  | 50 to 500 |
| N#Cc1cc(-c2ccnc(Nc3ccc(N4CCOCC4)cc3)n2)ccc1NC(=O)NC1CCC(O)CC1 (centres unmarked) [Example 46, 1-[2-cyano-4-(2-{[4-(morpholin-4-yl)phenyl]amino}pyrimidin-4-yl)phenyl]-3-(4-hydroxycyclohexyl) urea] |  | 50 to 500 |
| N#Cc1cc(-c2ccnc(Nc3ccc(N4CCOCC4)cc3)n2)ccc1NCc1cccnc1 [Example 200, 5-(2-{[4-(Morpholin-4-yl)phenyl]amino}pyrimidin-4-yl)-2-[(pyridin-3-ylmethyl)amino] benzonitrile] |  | 5 to 50 |
| COc1ccc(Nc2ncc(C)c(-c3cccc(C#N)c3)n2)cc1OC [compound 304, 3-{2-[(3,4-Dimethoxyphenyl)amino]-5-methylpyrimidin-4-yl}benzonitrile] |  | 50 to 500 |
| CN1CCN(CCOc2ccc(Nc3nccc(-c4cccc(C#N)c4)n3)cc2)CC1 [Example 292, 3-[2-({4-[2-(4-Methylpiperazin-1-yl)ethoxy]phenyl}amino)pyrimidin-4-yl]benzonitrile] |  | 50 to 500 |
| COc1cc(Nc2nccc(-c3ccc(OC4CCNCC4)c(C#N)c3)n2)ccc1S(=O)(=O)NCCCO [compound 399, 4-({4-[3-cyano-4-(piperidin-4-yloxy)phenyl]pyrimidin-2-yl}amino)-N-(3-hydroxypropyl)-2-methoxybenzene-sulfonamide] |  | 5 to 50 |

Further lines, results first:

| IC50 (TBK1) [nM] | IC50 (IKKε) [nM] | Compound |
| --- | --- | --- |
| < 10 | 5 to 50 | COc1ccc(-c2ccnc(Nc3cc(CN4CCNC(=O)C4)c(OC)c(OC)c3)n2)cc1C#N [Example 110, 5-[2-({3,4-Dimethoxy-5-[(3-oxopiperazin-1-yl)methyl]phenyl}amino)pyrimidin-4-yl]-2-methoxybenzonitrile] |
| < 10 | < 5 | C[C@H](O)C(=O)N1CCC(Oc2ccc(-c3ccnc(Nc4ccc(N5CCOCC5)cc4)n3)cc2C#N)CC1 [Example 6, 2-({1-[(2S)-2-Hydroxypropanoyl]piperidin-4-yl}oxy)-5-(2-{[4-(morpholin-4-yl)phenyl]amino}pyrimidin-4-yl)benzonitrile] |
| < 10 | < 5 | N#Cc1cc(-c2ccnc(Nc3ccc4scnc4c3)n2)ccc1OC1CCOCC1 [Example 15, 5-[2-(1,3-benzothiazol-5-ylamino)pyrimidin-4-yl]-2-(tetrahydro-2H-pyran-4-yloxy)benzonitrile] |
| < 10 | < 5 | COc1cc(Nc2nccc(-c3ccc(OC4CCOCC4)c(C#N)c3)n2)ccc1S(=O)(=O)NCCCO [Example 155, 4-({4-[3-cyano-4-(tetrahydro-2H-pyran-4-yloxy)phenyl]pyrimidin-2-yl}amino)-N-(3-hydroxypropyl)-2-methoxybenzene-sulfonamide] |
| 100 to 500 |  | N#Cc1cccc(-c2ccnc(Nc3ccc(Cl)cc3)n2)c1 [compound 340, 3-{2-[(4-Chlorophenyl)amino]pyrimidin-4-yl}benzonitrile] |
|  | 5 to 50 | CC(C)C(=O)Nc1ccc(-c2ccnc(Nc3ccc(C(C)C(=O)N4CCOCC4)cc3)n2)cc1C#N (centres unmarked) [compound 453, N-{2-cyano-4-[2-({4-[1-(morpholin-4-yl)-1-oxopropoan-2-yl]phenyl}amino)pyrimidin-4-yl]phenyl}-2-methylpropanamide] |
|  | < 5 | N#Cc1cc(-c2ccnc(Nc3cccc(NC(=O)N4CC(O)C4)c3)n2)ccc1OC1CCOCC1 [compound 598, N-[3-({4-[3-Cyano-4-(tetrahydro-2H-pyran-4-yloxy)phenyl]pyrimidin-2-yl}amino)phenyl]-3-hydroxyazetidin-1-carboxamide] |
|  | < 5 | N#Cc1cc(-c2ccnc(Nc3cccc(Cn4ccnn4)c3)n2)ccc1OC1CCOCC1 [compound 576, 2-(Tetrahydro-2H-pyran-4-yloxy)-5-(2-{[3-(1H-1,2,3-triazol-1-ylmethyl)phenyl]amino}pyrimidin-4-yl)benzonitrile] |
|  | 50 to 500 | CC(C)C(=O)Nc1ccc(-c2ccnc(Nc3ccc(CCN4CCNCC4)cc3)n2)cc1C#N [compound 451, N-{2-cyano-4-[2-({4-[2-(piperazin-1-yl)ethyl]phenyl}amino)pyrimidin-4-yl]phenyl}-2-methylpropanamide] |
|  | 5 to 50 | N#Cc1cc(Cl)cc(-c2ccnc(Nc3ccc(N4CCOCC4)cc3)n2)c1 [Example 50, 3-Chloro-5-(2-{[4-(morpholin-4-yl)phenyl]amino}pyrimidin-4-yl)benzonitrile] |
|  | < 5 | COC1CCN(c2cccc(Nc3nccc(-c4ccc(O[C@@H]5CCN(C(=O)CO)C5)c(C#N)c4)n3)c2)C1 (stereo partly drawn) [compound 546, 2-{[(3R)-1-(Hydroxyacetyl)pyrrolidin-3-yl]oxy}-5-(2-{[3-(3-methoxypyrrolidin-1-yl)phenyl]amino}pyrimidin-4-yl)benzonitrile] |
